Legend:
BRM = BRM (Homo sapiens, UniProt P51531); test: ATPase catalytic activity of BRM (ADP-Glo in vitro biochemical assay)
BRG-1 = BRG-1 (Homo sapiens, UniProt P51532); test: ATPase catalytic activity of BRG-1 (ADP-Glo in vitro biochemical assay)
Chain of BRG-1 (P51532 whole entry): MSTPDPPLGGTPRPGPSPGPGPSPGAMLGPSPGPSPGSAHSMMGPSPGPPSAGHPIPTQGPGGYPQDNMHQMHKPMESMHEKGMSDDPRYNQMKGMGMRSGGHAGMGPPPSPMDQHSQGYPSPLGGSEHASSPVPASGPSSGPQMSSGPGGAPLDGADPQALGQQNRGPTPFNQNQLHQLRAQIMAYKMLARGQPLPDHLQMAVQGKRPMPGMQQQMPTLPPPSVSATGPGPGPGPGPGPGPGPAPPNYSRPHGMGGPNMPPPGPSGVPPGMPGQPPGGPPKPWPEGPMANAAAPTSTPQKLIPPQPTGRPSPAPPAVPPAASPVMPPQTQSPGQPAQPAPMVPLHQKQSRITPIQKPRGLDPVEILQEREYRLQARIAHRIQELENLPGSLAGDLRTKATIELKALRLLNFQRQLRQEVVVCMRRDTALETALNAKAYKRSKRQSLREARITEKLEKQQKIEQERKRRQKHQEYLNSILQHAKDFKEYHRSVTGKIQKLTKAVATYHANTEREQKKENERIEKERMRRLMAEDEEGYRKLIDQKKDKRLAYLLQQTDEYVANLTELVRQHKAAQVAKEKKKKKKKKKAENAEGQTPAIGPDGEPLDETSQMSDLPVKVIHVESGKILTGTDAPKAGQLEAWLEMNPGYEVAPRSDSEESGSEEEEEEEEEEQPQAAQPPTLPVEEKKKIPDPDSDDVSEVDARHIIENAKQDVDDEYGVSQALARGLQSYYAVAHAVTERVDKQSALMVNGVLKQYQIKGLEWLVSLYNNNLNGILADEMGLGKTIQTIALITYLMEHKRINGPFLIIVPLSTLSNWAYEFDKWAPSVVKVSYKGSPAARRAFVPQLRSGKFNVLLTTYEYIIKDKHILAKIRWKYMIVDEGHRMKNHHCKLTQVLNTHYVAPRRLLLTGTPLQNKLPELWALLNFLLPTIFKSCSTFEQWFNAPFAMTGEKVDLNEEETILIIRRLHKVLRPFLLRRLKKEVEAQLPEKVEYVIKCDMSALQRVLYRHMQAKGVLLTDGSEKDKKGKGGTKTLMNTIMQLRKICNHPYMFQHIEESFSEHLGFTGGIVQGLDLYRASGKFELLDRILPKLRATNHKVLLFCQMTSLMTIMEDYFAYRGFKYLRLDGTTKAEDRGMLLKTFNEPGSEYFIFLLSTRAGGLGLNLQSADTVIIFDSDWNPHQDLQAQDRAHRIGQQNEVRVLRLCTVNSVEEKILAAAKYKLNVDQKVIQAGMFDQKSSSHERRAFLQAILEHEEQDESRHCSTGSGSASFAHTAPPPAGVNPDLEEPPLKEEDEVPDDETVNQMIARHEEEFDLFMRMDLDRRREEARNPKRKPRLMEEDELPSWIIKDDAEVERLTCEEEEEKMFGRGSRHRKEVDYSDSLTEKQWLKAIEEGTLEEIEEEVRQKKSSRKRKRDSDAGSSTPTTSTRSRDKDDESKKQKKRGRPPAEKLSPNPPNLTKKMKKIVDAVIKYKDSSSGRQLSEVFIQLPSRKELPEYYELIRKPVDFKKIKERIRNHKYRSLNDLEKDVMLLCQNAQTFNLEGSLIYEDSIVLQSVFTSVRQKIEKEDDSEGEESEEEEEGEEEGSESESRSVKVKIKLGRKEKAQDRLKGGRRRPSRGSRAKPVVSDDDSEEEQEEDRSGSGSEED

Chain of BRM (P51531 whole entry): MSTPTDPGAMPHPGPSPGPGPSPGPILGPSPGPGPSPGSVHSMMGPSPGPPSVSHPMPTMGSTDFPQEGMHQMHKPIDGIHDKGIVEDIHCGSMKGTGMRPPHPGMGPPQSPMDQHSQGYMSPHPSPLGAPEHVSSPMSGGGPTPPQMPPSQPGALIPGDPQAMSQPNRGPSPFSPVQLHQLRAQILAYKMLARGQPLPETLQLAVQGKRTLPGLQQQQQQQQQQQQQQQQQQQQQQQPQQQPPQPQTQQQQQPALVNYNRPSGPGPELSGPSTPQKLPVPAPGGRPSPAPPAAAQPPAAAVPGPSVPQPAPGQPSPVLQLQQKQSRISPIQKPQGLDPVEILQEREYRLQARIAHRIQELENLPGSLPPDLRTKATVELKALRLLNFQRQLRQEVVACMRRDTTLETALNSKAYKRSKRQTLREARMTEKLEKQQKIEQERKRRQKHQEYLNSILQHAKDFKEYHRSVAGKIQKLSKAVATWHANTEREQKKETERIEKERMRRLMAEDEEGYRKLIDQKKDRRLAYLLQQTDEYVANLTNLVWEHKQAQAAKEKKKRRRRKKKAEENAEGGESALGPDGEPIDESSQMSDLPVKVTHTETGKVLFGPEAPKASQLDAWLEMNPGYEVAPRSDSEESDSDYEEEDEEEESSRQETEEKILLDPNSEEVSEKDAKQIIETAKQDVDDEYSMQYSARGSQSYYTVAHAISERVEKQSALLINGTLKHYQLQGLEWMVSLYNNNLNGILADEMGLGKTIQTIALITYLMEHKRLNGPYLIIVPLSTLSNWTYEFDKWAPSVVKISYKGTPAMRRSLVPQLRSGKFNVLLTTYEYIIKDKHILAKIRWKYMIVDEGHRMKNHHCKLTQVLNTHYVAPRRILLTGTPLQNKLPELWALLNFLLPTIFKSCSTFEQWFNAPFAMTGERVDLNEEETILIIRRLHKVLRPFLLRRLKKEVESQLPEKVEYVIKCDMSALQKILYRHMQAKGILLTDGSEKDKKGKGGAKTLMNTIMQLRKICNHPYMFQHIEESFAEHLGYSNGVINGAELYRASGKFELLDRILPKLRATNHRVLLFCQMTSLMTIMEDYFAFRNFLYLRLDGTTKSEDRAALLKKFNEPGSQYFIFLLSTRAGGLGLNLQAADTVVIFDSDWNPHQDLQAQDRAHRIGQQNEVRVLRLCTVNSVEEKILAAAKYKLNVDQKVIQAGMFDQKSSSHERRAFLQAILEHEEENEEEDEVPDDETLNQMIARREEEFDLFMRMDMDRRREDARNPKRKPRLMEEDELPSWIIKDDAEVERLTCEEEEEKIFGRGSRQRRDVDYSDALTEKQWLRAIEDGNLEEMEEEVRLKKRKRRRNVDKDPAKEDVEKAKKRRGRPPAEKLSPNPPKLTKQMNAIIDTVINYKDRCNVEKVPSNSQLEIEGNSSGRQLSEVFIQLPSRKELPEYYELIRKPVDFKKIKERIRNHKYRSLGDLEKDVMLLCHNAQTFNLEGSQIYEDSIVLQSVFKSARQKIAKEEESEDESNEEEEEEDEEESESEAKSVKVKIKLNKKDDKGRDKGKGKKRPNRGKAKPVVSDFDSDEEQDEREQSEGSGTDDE

Compound	IC50 (BRM)	BRM Max % Inhibition (BRM; Table 6)	IC50 (BRG-1)	BRG1 Max % Inhibition (BRG-1; Table 6)	BRM Max % Inhibition (BRM; Table 5)	BRG1 Max % Inhibition (BRG-1; Table 5)
NC[C@H]1CC[C@H](c2cccc(-c3csc(NC(=O)CNC(=O)c4ccc(N)cc4)n3)c2)CC1 [Compound 174, 4-amino-N-(2-((4-(3-((1r,4r)-4-(aminomethyl)cyclohexyl)phenyl)thiazol-2-yl)amino)-2-oxoethyl)benzamide]	100 to 1000 nM	>80%	100 to 1000 nM	>80%	–	–
CN(C)CCNc1cc(-c2cccc(-c3csc(NC(=O)CNC(=O)c4ccc(N)cc4)n3)c2)ccn1 [Compound 189, 4-amino-N-[2-[[4-[3-[2-[2-(dimethylamino)ethylamino]-4-pyridyl]phenyl]thiazol-2-yl]amino]-2-oxo-ethyl]benzamide]	100 to 1000 nM	>90%	100 to 1000 nM	>90%	–	–
CC(=O)NCc1ccc(-c2cccc(-c3csc(NC(=O)CNC(=O)c4ccc(N)cc4)n3)c2)cc1 [Compound 123, N-(2-((4-(4′-(acetamidomethyl)-[1,1′-biphenyl]-3-yl)thiazol-2-yl)amino)-2-oxoethyl)-4-aminobenzamide]	100 to 1000 nM	>80%	100 to 1000 nM	>80%	–	–
CSCC[C@H](NC(=O)c1ccc(C(F)(F)F)cc1)C(=O)Nc1nc(-c2ccccc2)cs1 [Compound 68]	> 10000 nM	–	> 10000 nM	–	–	–
CC(C)c1csc(NC(=O)CNC(=O)c2cccc(S(=O)(=O)N(C)C)c2)n1 [Compound 35, 3-(dimethylsulfamoyl)-N-[2-[(4-isopropylthiazol-2-yl)amino]-2-oxoethyl]benzamide]	> 10000 nM	–	> 10000 nM	–	>95%	>90%
CSCC[C@H](NC(=O)c1ccc(N)cc1)C(=O)Nc1nc(-c2cccc(CNC(C)=O)c2)cs1 [Compound 120, (S)-N-(1-((4-(3-(acetamidomethyl)phenyl)thiazol-2-yl)amino)-4-(methylthio)-1-oxobutan-2-yl)-4-aminobenzamide]	100 to 1000 nM	>90%	100 to 1000 nM	>90%	–	–
CN(C)C(=O)c1ccc(-c2cccc(-c3csc(NC(=O)CNC(=O)c4ccc(N)cc4)n3)c2)cc1 [Compound 137, 3′-(2-(2-(4-aminobenzamido)acetamido)thiazol-4-yl)-N,N-dimethyl-[1,1′-biphenyl]-4-carboxamide]	100 to 1000 nM	>90%	100 to 1000 nM	>95%	–	–
Nc1ccc(C(=O)NCC(=O)Nc2nc(-c3cccc(-c4ccnc(N)c4)c3)cs2)cc1 [Compound 133, 4-amino-N-(2-((4-(3-(2-aminopyridin-4-yl)phenyl)thiazol-2-yl)amino)-2-oxoethyl)benzamide]	< 100 nM	>95%	< 100 nM	>95%	–	–
CNc1ccc(C(=O)NCC(=O)Nc2nc(-c3cccc(-c4ccncc4)c3)cs2)cc1 [Compound 126, 4-(methylamino)-N-(2-oxo-2-((4-(3-(pyridin-4-yl)phenyl)thiazol-2-yl)amino)ethyl)benzamide]	< 100 nM	>80%	< 100 nM	>80%	–	–
CN(C)S(=O)(=O)c1cccc(C(=O)NCC(=O)Nc2nc(-c3cccc(C(=O)O)c3)cs2)c1 [Compound 33, 3-[2-[[2-[[3-(dimethylsulfamoyl)benzoyl]amino]acetyl]amino]thiazol-4-yl]benzoic acid]	> 10000 nM	–	> 10000 nM	–	>80%	>80%
Nc1ccc(C(=O)NCC(=O)Nc2nc(-c3ccc(O)cc3)cs2)cc1 [Compound 115, 4-amino-N-(2-((4-(4-hydroxyphenyl)thiazol-2-yl)amino)-2-oxoethyl)benzamide]	100 to 1000 nM	>90%	100 to 1000 nM	>90%	–	–
CC(C)(N)c1cc(-c2cccc(-c3csc(NC(=O)CNC(=O)c4ccc(N)cc4)n3)c2)ccn1 [Compound 211, 4-amino-N-[2-[[4-[3-[2-(1-amino-1-methyl-ethyl)-4-pyridyl]phenyl]thiazol-2-yl]amino]-2-oxo-ethyl]benzamide]	100 to 1000 nM	>95%	100 to 1000 nM	>90%	–	–
CC(C)CC[C@H](NC(=O)c1ccccc1)C(=O)Nc1nc(-c2ccccc2)cs1 [Compound 46, N-[(1S)-4-methyl-1-[(4-phenylthiazol-2-yl)carbamoyl]pentyl]benzamide]	1000 to 10000 nM	–	1000 to 10000 nM	–	–	–
Cc1nc(-c2cccc(-c3csc(NC(=O)CNC(=O)c4ccc(N)cc4)n3)c2)cn1C [Compound 222, 4-amino-N-[2-[[4-[3-(1,2-dimethylimidazol-4-yl)phenyl]thiazol-2-yl]amino]-2-oxo-ethyl]benzamide]	100 to 1000 nM	>95%	100 to 1000 nM	>80%	–	–
Nc1ccc(C(=O)NCC(=O)Nc2nc(-c3cccc(N4CCS(=O)(=O)CC4)c3)cs2)cc1 [Compound 185, 4-amino-N-(2-((4-(3-(1,1-dioxidothiomorpholino)phenyl)thiazol-2-yl)amino)-2-oxoethyl)benzamide]	100 to 1000 nM	>80%	100 to 1000 nM	>70%	–	–
CNS(=O)(=O)c1cccc(C(=O)NCC(=O)Nc2nc(-c3ccccc3)cs2)c1 [Compound 26, 3-(methylsulfamoyl)-N-[2-oxo-2-[(4-phenylthiazol-2-yl)amino]ethyl]benzamide]	> 10000 nM	–	> 10000 nM	–	>60%	<30%
CSCC[C@H](NC(=O)c1cccc(S(=O)(=O)C(C)C)c1)C(=O)Nc1nc(-c2ccccc2)cs1 [Compound 14, (S)-3-(isopropylsulfonyl)-N-(4-(methylthio)-1-oxo-1-((4-phenylthiazol-2-yl)amino)butan-2-yl)benzamide]	1000 to 10000 nM	–	> 10000 nM	–	>80%	>60%
Cc1ccc(-c2csc(NC(=O)CNC(=O)c3ccc(N)cc3)n2)cc1-c1ccncc1 [Compound 188, 4-amino-N-[2-[[4-[4-methyl-3-(4-pyridyl)phenyl]thiazol-2-yl]amino]-2-oxo-ethyl]benzamide]	< 100 nM	>95%	< 100 nM	>80%	–	–
Nc1ccc(C(=O)NCC(=O)Nc2nc(-c3cccc(CCc4ccncc4)c3)cs2)cc1 [Compound 218, 4-amino-N-[2-oxo-2-[[4-[3-[2-(4-pyridyl)ethyl]phenyl]thiazol-2-yl]amino]ethyl]benzamide]	< 100 nM	>95%	100 to 1000 nM	>90%	–	–
O=C(CNC(=O)c1ccc(N2CC(O)C2)cc1)Nc1nc(-c2cccc(-c3ccncc3)c2)cs1 [Compound 103, 4-(3-hydroxyazetidin-1-yl)-N-(2-oxo-2-((4-(3-(pyridin-4-yl)\phenyl)thiazol-2-yl)amino)ethyl)benzamide]	100 to 1000 nM	>70%	1000 to 10000 nM	>80%	–	–

— patent US11497752B2, “Compounds and uses thereof” (Foghorn Therapeutics Inc., priority 2018, dated 2022)
